{"source": "patent US20240285808A1", "about": "“MOLECULAR PROBES FOR IN VIVO DETECTION OF ALDEHYDES” (The General Hospital Corporation, priority 2021, published 2024)", "key": {"[1]": {"system": "liver of bile duct ligated (BDL) rats", "assay": "MR imaging of liver in bile duct ligated rat liver fibrosis model", "format": "in vivo", "settings": "for ΔCNR of liver: 30 min post injection", "method": "Rat Liver Fibrosis Model:\nLiver fibrosis was induced in male Sprague Dawley rats (n=7) by ligation of the common bile duct (CD®, Charles River Labs, Wilmington, MA). Control animals (n=4) underwent a sham procedure. The BDL and sham rats were imaged 10 days following ligation with a dose of […] of Gd-9 based on body surface area.\nT1-mapping was performed with a flow sensitive alternating inversion recovery (FAIR) sequence: repetition time/echo time=11000/33.8 ms; flip angle, 90°; inversion times: 100, 200, 400, 500, 600, 1000, 1500, 2000 ms; field of view, 60×60 mm^2; matrix size, 140×140; slice thickness, 2 mm; acquisition time, 3 minutes 34 seconds. T1 weighted imaging with 3D FLASH: repetition time/echo time=20/2.3 ms; flip angle, 30°; field of view, 60×60 mm^2; matrix size: 127×127; slice thickness, 0.5 mm; acquisition time, 3 minutes 10 seconds. Following the imaging session, animals were sacrificed (30 min p.i.) and liver tissue was subjected to histopathologic analysis.\nLongitudinal relaxation rate (R1) maps were generated from the T1 mapping images using a custom written MATLAB (Mathworks, Natick, MA) program for voxel wise fitting of the inversion recovery signal intensities as a function of the inversion time. A region of interest (ROI) was manually traced encompassing the liver parenchyma while avoiding major blood vessels. ΔR1 was calculated by subtracting the R1Pre from R1Post, eq S3. ΔCNR were analyzed from 3D T1 weighted FLASH images, the same as that in mouse."}, "[2]": {"system": "lung of SAMP8/SAMR1 mice with TAC", "assay": "MR imaging of lung in transverse aortic constriction (TAC) model", "format": "in vivo, mouse", "settings": "20 min post injection", "excerpt": "Combined Heart and Lung Fibrosis Model:\nLeft ventricular dysfunction with pulmonary hypertension was induced by left thoracotomy transverse aortic constriction surgery (TAC) in 6-month-old senescence-accelerated-prone/resistant mice (SAMP8/SAMR1), which is a well-established model of pressure overload-induced cardiac hypertrophy that can induce heart and lung fibrosis. The transverse aorta was encircled with 7-0 nylon suture and tied tightly around a pre-sterilized, blunt-end of a 27-gauge needle. After securing the knot, the needle was removed, and aortic flow resumed. Another two groups of SAMP8 and SAMR1 mice received sham surgery as control. 3-weeks post-surgery, mice were anesthetized with isoflurane (1.5%) and imaged at a 4.7 Tesla Bruker MRI scanner.\nFor combined heart and lung imaging, a series of baseline images (2D T1 weighted FLASH for heart and 3D-UTE for lung) were first acquired. 2D T1 weighted FLASH: repetition time/echo time=18.24/3.54 ms; flip angle, 50°; field of view, 36×36 mm^2; matrix size, 138×138 mm^2; slice thickness, 1 mm; acquisition time, 3 minutes 50 seconds. 3D-UTE: repetition time/echo time=4/0.01225 ms; flip angle, 16°; field of view, 32×32 mm^2; matrix size, 128×128 mm^2; slice thickness, 0.25 mm; acquisition time, 3 minutes 36 seconds. Then a bolus of Gd-9 complex was administered i.v. and imaging performed for a period of 40 min p.i. with the repetition acquisition of 2D T1 weighted FLASH and 3D-UTE sequences. Following the imaging session, animals were sacrificed and heart and lung tissue was subjected to histopathologic analysis.\nFor lung imaging analysis, RARE image, FLASH image pre-contrast and immediately post-contrast were used to define regions of interest (ROIs) in the lung that excluded vessels and airways. A total of 6 lung ROIs were defined on axial UTE images to obtain signal intensity (SI); ROIs in the dorsal muscle in each slice were also defined as reference; ROIs in the field of view without any tissue (air) were used to measure the variation in background signal. Then the lung-to muscle ratio (LMR) or contrast to noise ratio (CNR) was averaged from the 6 slices to calculate changes in LMR (ΔLMR) or CNR (ΔCNR) at each time point."}, "[3]": {"system": "human fibrotic/cirrhotic liver associated with NASH and normal liver tissue", "assay": "LA-ICP-MS gadolinium imaging of human liver sections incubated with Gd-9", "format": "binding", "method": "Liver tissues were obtained from a total of 9 anesthetized patients who underwent surgical resection at Massachusetts General Hospital, and analyzed in accordance with a protocol approved by the Massachusetts General Hospital's Institutional Review Board.\nTissue Analysis for Human Tissues\nThe dissected tissues were immediately snap frozen in OCT using liquid nitrogen, sectioned into 10-μm-thick slices and stored at −80° C. Subsequently, the tissue sections were first allowed to warm to room temperature for 10 min and then fixed in 60% ethanol for 30 min, and washed with PBS. The following steps were the same as described above for the Sirius red staining and DNPH-reactivity assay.\nLA-ICP-MS Gadolinium Imaging Analysis\nSample preparation. Harvested rat livers after MR imaging were immediately snapfrozen in OCT using liquid nitrogen, sectioned into 10-μm-thick slices, stored in −80° C. One slice was assessed by LA-ICP-MS directly. One adjacent slide was incubated with 0.1 mM Gd-9 at 37° C. for 2 h, followed with 0.2 mM NaBH3CN for 2 h and washed with PBS (3×10 min). Another adjacent slide was incubated with 0.1 mM Gd-9 and 10 mM hydrazine at 37° C. for 2 h, followed with 0.2 mM NaBH3CN for 2 hand washed with PBS (3×10 min). Similar procedures were carried out for human tissues. Slides were incubated with 0.1 mM Gd-9 at 37° C. for 2h, followed with 0.2 mM NaBH3CN for 2 h and washed with PBS (3×10 min).\nGadolinium mapping. Elemental images were collected from sections of liver tissue via laser ablation inductively coupled plasma mass spectrometry at the Biomedical National Elemental Imaging Resource (BNEIR). The instrumentation used was a New Wave Research 213 nm laser ablation system with a 10 cm^2 sample chamber, interfaced with an Agilent 7900 ICP-MS system. Samples were ablated in no-gas mode, with helium as a carrier gas at a flow rate of […]. The laser power was 65% and the frequency was 20 Hz. Ablation patterns consisted of continuous lines, with either a 12 μm or […] square beam and a scan speed of 120 μm sec^−1 or 200 μm sec^−1 respectively, as noted. The acquisitions time for gadolinium (mass 157) was 0.015 s. Elemental imaging data was quantified using metal-doped gelatin standards prepared at BNEIR and National Institute of Standards and Technology (NIST) certified references material 1515 (apple leaves). Data reduction was performed in the Iolite software application, using carbon (mass 13) as an internal standard to normalize the data.\nThe applicability of Gd-9 to assess fibrogenesis in human liver specimens was investigated. Resected human fibrotic/cirrhotic liver associated with NASH (n=5) and normal liver tissue (n=4) (Table C) were sectioned and stained for Lys^Ald."}}, "data": [{"smiles": "NN1CCN(C(=O)CCC(C(=O)[O-])N2CCN(CC(=O)[O-])CCN(CC(=O)[O-])CCN(C(CCC(=O)N3CCN(N)CC3)C(=O)[O-])CC2)CC1.[Gd+3]", "note": "(stereo not drawn) [Gd-9, cis-1,4-Gd-(CHyd)2]", "values": [{"measurement": "fold higher liver to muscle ΔCNR in BDL rats compared to sham rats", "setting": "[1]; 30 min", "result": 4, "unit": "fold"}, {"measurement": "fold higher ΔR1 in BDL rats compared to sham rats", "setting": "[1]; 30 min p.i.", "result": 5, "unit": "fold"}, {"measurement": "ΔCNR of liver", "setting": "[1]; BDL rats (n = 7)", "result": "3.4±1.6"}, {"measurement": "change of liver longitudinal relaxation rate ΔR1", "setting": "[1]; BDL rats, 30 min p.i.", "result": "0.6±0.2"}, {"measurement": "ΔCNR of liver", "setting": "[1]; Sham rats (n = 4)", "result": "0.6±0.2"}, {"measurement": "ΔR1", "setting": "[1]; rat model, in vivo imaging", "result": 0.6, "unit": "s⁻¹"}, {"measurement": "change of liver longitudinal relaxation rate ΔR1", "setting": "[1]; sham rats, 30 min p.i.", "result": "0.1±0.03"}, {"measurement": "ΔCNR of lung", "setting": "[2]; SAMP1-TAC", "result": "1.2 ± 0.3"}, {"measurement": "ΔCNR of lung", "setting": "[2]; SAMP8-Sham", "result": "0.8 ± 0.5"}, {"measurement": "ΔCNR of lung", "setting": "[2]; SAMP8-TAC", "result": "3.1 ± 0.9"}, {"measurement": "ΔCNR of lung", "setting": "[2]; Sham", "result": "0.4 ± 0.2"}, {"measurement": "average Gd concentration in fibrotic human liver", "setting": "[3]; across all samples", "result": "80.4±15.5", "unit": "ppm"}, {"measurement": "average Gd concentration in normal liver", "setting": "[3]; across all samples", "result": "23.7±10.8", "unit": "ppm"}, {"measurement": "average Gd concentration in Lys^Ald positive areas", "setting": "[3]; fibrotic human liver slices incubated with 0.1 mM probe", "result": "30-200 ppm Gd"}, {"measurement": "average Gd concentration in regions with low Lys^Ald", "setting": "[3]; human liver slices incubated with 0.1 mM probe", "result": "< 30", "unit": "ppm Gd"}]}]}
